Tests used:
Assay type in all cases: in vivo
sugarcane [1] = assay: Example 1: sugar content of sugarcane stem juice after power-sprayer application, field test in Brazil
Experimental: With respect to sugarcane grown in a sugarcane cultivated area in Brazil (an average Brix value in the harvesttime being 18%), a juice was collected from 5 middle internodes selected at random in the sugarcane stem and the Brix value was measured according to a usual method. At the time the measured Brix value became 82% of the aforementioned average Brix value, a bispyribac-sodium formulation (a commercially available product, a tradename “NOMINEE 400SC”) was diluted with water so that the amount of the effective ingredient in 74 liters of the spraying liquid could be equal to the used amount shown in Table 1. The liquid was then sprayed above the plant by the aid of a power sprayer to a test area at a rate of 74 liters per hectare.
(§1) In a control area, a known sulfometuron-methyl formulation (a commercially available product, a tradename “CURAVIAL”) was similarly sprayed.
Next, 10 individual sugarcanes were cut from each area on the initial day of spraying, after 30 days of spraying and after 45 days of spraying, and thereafter the stem was squeezed and sugar was recovered from the juice to obtain the yield. Each yield was compared with the yield of the initial day of spraying and the rate of increase (%) was calculated.
(§2) In accordance with “NORMAS DE AVALIAçÃO DA […] DA CANA-DE-AçÚCAR” used in Brazilian sugar refining plants as Standard for quality evaluation of sugarcane, the analysis on the sugar content in the squeezed juice of sugarcane stem was carried out for Brix value, sugar content in sugarcane (PC), and total sugar amount recoverable from sugarcane stem (ATR) as follows.
(§3) Brix was measured according to a digital refractometer. PC was calculated according to the equation (1). ATR was calculated according to the equation (5).
S denotes a sugar content in the extracted liquid and is calculated according to the equation (2). F denotes an amount of fibers in sugarcane and is calculated according to the equation (3). C denotes a conversion coefficient from the sugar content in the extracted liquid to an absolute amount and is calculated according to the equation (4).
LAI denotes a measured value by the digital saccharimeter after clarification of the juice by a clarifying mixture made from aluminum.
PBU denotes the mass of a wet bagasse exhausted from a pressing machine in the squeezed step of sugarcane stem.
ARC denotes an amount of reducing sugar of sugarcane and is calculated from the following equation (6).
AR denotes an amount of reducing sugar in the extracted liquid and is calculated from the following equation (7).

sugarcane [2] = assay: Example 2: sugar content of sugarcane stem juice after spraying from an aircraft, field test in Brazil; settings: after 30 days of spraying
Experimental: as §2, §3
At the time the Brix value of sugarcane grown in a sugarcane cultivated area in Brazil (an average Brix value in the harvesttime being 21%) became 81% of the aforesaid average Brix value, a bispyribac-sodium formulation (a commercially available product, a tradename “NOMINEE 400SC”) was diluted with water so that the amount of the effective ingredient in 30 liters of the spraying liquid could be equal to the used amount shown in Table 3, and the liquid was sprayed over the test area from an air-craft at a rate of 30 liters per hectare.
In a control area, a known fluazifop formulation (a commercially available product, a tradename “[…]”) was similarly sprayed.
Next, 5 individual sugarcanes were cut from 5 locations in each area, i.e. 25 sugarcanes from each area, on the initial day of spraying and after 30 days of spraying, and thereafter the stems were squeezed and sugar was recovered from the juice to obtain the yield. The yield after 30 days of spraying was compared with the yield of the initial day of spraying and the rate of increase (%) was calculated. The analysis on the sugar content in the squeezed juice of sugarcane stems was carried out similarly as in the case of Example 1.

sugarcane [3] = assay: Example 5: sugar content of sugarcane stem juice after bispyribac-sodium and/or gibberellin spraying, field test in Brazil; settings: 20 g/ha
Experimental: as §2, §3
At the time the Brix value of sugarcane grown in a sugarcane cultivated area in Brazil (an average Brix value in the harvesttime being 18%) became 88% of the aforesaid average Brix value, a bispyribac-sodium formulation (a commercially available product, a tradename, “NOMINEE 400SC”) and a gibberellin formulation (a commercially available product, a tradename, “PRO-GIBB”) were admixed together and diluted with water or separately diluted with water so that the amount of the effective ingredient in 105 liters of each of the spraying liquids could be equal to the used amount shown in Table 8, and each liquid was sprayed above the plant by the aid of a CO2-pressurized back pack sprayer to the test area at a rate of 105 liters per hectare.
as §1
(§4) Next, 20 individual sugarcanes were cut from each area on the initial day of spraying, after 15 days of spraying, after 30 days of spraying and after 45 days of spraying, and thereafter the stems were squeezed and sugar was recovered from the juice to obtain the yield. Each yield was compared with the yield of the initial day of spraying and the rate of increase (%) was calculated. The analysis on the sugar content in the squeezed juice of sugarcane stems was carried out similarly as in the case of Example 1.

sugarcane [4] = assay: Example 6: sugar content of sugarcane stem juice after bispyribac-sodium + prohexadione-calcium spraying, field test in Brazil; settings: 200 g/ha
Experimental: as §2, §3
At the time the Brix value of sugarcane grown in a sugarcane cultivated area in Brazil (an average Brix value in the harvesttime being 20%) became 80% of the aforesaid average Brix value, a bispyribac-sodium formulation (a commercially available product, a tradename, “NOMINEE 400SC”) and a prohexadione-calcium formulation (a tradename, “VIVIFUL”) were admixed together and diluted with water so that the amount of the effective ingredient in 105 liters of each spraying liquid could be equal to the used amount shown in Table 10, and the liquid was sprayed above the plant by the aid of a CO2-pressurized back pack sprayer to the test area at a rate of 105 liters per hectare.
In a control area, a known trinexapac-ethyl formulation (a commercially available product, a tradename “MODDUS”) was similarly sprayed.
as §4

[5] = 16 g/ha, after 30 days of spraying
[6] = 16 g/ha, after 45 days of spraying
[7] = 35 g/ha, after 30 days of spraying
[8] = 35 g/ha, after 45 days of spraying

## COc1cc(OC)nc(Oc2cccc(Oc3nc(OC)cc(OC)n3)c2C(=O)O)n1 [Bispyribac-sodium]
Sugarcane [1]; [5]
  ATR increased rate from the initial day of spraying: 23.1%
  Brix increased rate from the initial day of spraying: 23.0%
  Concentration of soluble solid matter, Brix: 18.4%
  PC increased rate from the initial day of spraying: 25.7%
  Sugar content in sugarcane, PC: 13.0%
  Total sugar amount recoverable from 1 kg of stem, ATR: 129.7 g
Sugarcane [1]; [6]
  ATR increased rate from the initial day of spraying: 44.9%
  Brix increased rate from the initial day of spraying: 41.0%
  Concentration of soluble solid matter, Brix: 21.1%
  PC increased rate from the initial day of spraying: 50.9%
  Sugar content in sugarcane, PC: 15.5%
  Total sugar amount recoverable from 1 kg of stem, ATR: 152.7 g
Sugarcane [1]; [7]
  ATR increased rate from the initial day of spraying: 32.0%
  Brix increased rate from the initial day of spraying: 29.5%
  Concentration of soluble solid matter, Brix: 20.5%
  PC increased rate from the initial day of spraying: 35.9%
  Sugar content in sugarcane, PC: 14.7%
  Total sugar amount recoverable from 1 kg of stem, ATR: 145.1 g
Sugarcane [1]; [8]
  ATR increased rate from the initial day of spraying: 42.1%
  Brix increased rate from the initial day of spraying: 37.1%
  Concentration of soluble solid matter, Brix: 21.7%
  PC increased rate from the initial day of spraying: 47.6%
  Sugar content in sugarcane, PC: 15.9%
  Total sugar amount recoverable from 1 kg of stem, ATR: 156.2 g
Sugarcane [2]; 25 g/ha
  ATR increased rate from the initial day of spraying: 22.3%
  Brix increased rate from the initial day of spraying: 19.8%
  Concentration of soluble solid matter, Brix: 19.9%
  PC increased rate from the initial day of spraying: 24.1%
  Sugar content in sugarcane, PC: 14.6%
  Total sugar amount recoverable from 1 kg of stem, ATR: 141.8 g
Sugarcane [2]; 30 g/ha
  ATR increased rate from the initial day of spraying: 22.1%
  Brix increased rate from the initial day of spraying: 21.6%
  Concentration of soluble solid matter, Brix: 20.8%
  PC increased rate from the initial day of spraying: 25.2%
  Sugar content in sugarcane, PC: 15.6%
  Total sugar amount recoverable from 1 kg of stem, ATR: 149.0 g
Sugarcane [3]; after 15 days of spraying
  ATR increased rate from the initial day of spraying: 6.2%
  Brix increased rate from the initial day of spraying: 4.5%
  Concentration of soluble solid matter, Brix: 16.2%
  Total sugar amount recoverable from 1 kg of stem, ATR: 112.5 g
Sugarcane [3]; after 30 days of spraying
  ATR increased rate from the initial day of spraying: 17.3%
  Brix increased rate from the initial day of spraying: 11.7%
  Concentration of soluble solid matter, Brix: 17.3%
  Total sugar amount recoverable from 1 kg of stem, ATR: 124.2 g
Sugarcane [3]; after 45 days of spraying
  ATR increased rate from the initial day of spraying: 19.1%
  Brix increased rate from the initial day of spraying: 12.9%
  Concentration of soluble solid matter, Brix: 17.5%
  Total sugar amount recoverable from 1 kg of stem, ATR: 126.1 g

## CCOC(=O)C1CC(=O)C(=C(O)C2CC2)C(=O)C1 (stereo not drawn) [Trinexapac-ethyl, trinexapac-ethyl]
Sugarcane [4]; after 15 days of spraying
  ATR increased rate from the initial day of spraying: 10.3%
  Brix increased rate from the initial day of spraying: 8.0%
  Concentration of soluble solid matter, Brix: 17.5%
  Total sugar amount recoverable from 1 kg of stem, ATR: 125.3 g
Sugarcane [4]; after 30 days of spraying
  ATR increased rate from the initial day of spraying: 18.0%
  Brix increased rate from the initial day of spraying: 15.7%
  Concentration of soluble solid matter, Brix: 18.8%
  Total sugar amount recoverable from 1 kg of stem, ATR: 134.0 g
Sugarcane [4]; after 45 days of spraying
  ATR increased rate from the initial day of spraying: 30.8%
  Brix increased rate from the initial day of spraying: 24.7%
  Concentration of soluble solid matter, Brix: 20.2%
  Total sugar amount recoverable from 1 kg of stem, ATR: 148.5 g

Source: US20100210467A1, “AGENT FOR IMPROVING SUGARCANE BRIX AND METHOD OF PROMOTING SUGARCANE RIPENING USING THE SAME” (Kumiai Chemical Industry Co., Ltd., priority 2007, published 2010)
